Experimental data taken from patent US8703776B2 (Cymabay Therapeutics, Inc., priority 2011, dated 2014).

Target: T1, human GPR131 (Homo sapiens, UniProt Q8TDU6)
T1 construct: expressed in transfected cells
T1 sequence (Q8TDU6 1-330): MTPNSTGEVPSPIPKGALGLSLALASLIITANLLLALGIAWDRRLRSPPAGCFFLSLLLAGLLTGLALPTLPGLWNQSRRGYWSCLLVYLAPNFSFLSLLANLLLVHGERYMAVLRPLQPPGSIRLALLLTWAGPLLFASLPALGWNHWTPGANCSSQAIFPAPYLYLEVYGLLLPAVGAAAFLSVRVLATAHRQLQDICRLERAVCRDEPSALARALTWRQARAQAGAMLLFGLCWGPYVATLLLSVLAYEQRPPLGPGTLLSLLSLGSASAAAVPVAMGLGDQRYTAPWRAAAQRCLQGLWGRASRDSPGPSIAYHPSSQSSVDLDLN
Test: Stimulation of cAMP in stable cell line expressing human GPR131 (FRET cAMP kit)
Format: cell-based
Conditions: 0.5 h; 1.1 μM compound, relative to maximal stimulatory activity of lithocholic acid at 3.3 μM; 30 minutes at 37° C.; read-out: Percent Activity @ 1.1 μM (of 3.3 uM LCA) (%)
Experimental: This assay was developed using a stable cell line expressing human GPR131.
To measure cAMP activity in response to GPR131 agonists, GPR131 cells suspended in DMEM/F12 medium with 1 mM IBMX were seeded in 384 well plates at 5000 cells per well. After incubating with test compounds at 37° C. for 30 minutes cAMP was measured using a fluorescene resonance energy transfer cAMP kit from Cis Bio (Bedford, Mass.) according to the manufacturer's instructions. Briefly, cells were lysed, and cAMP levels determined by competitive immunoassay using D2 labeled cAMP, and europium cryptate tagged anti cAMP antibody. Decreases in the FRET signal (fluorescence ratio (665 nm/620 […]) correspond to increases in intracellular cAMP levels.
Activities of test compounds in Table 1 below are expressed as % activity at 1.1 μM compound compared to the maximal stimulatory activity of lithocholic acid (LCA) (determined at 3.3 μM LCA)

Compound | activation at 1.1 µM [%]
Cc1nn(C)cc1CNCc1cnc(SCc2c(F)ccc(F)c2F)n1-c1ccc(F)cc1 [Compound 531, 1-(1,3-Dimethyl-1H-pyrazol-4-yl)-N-((1-(4-fluorophenyl)-2-((2,3,6-trifluorobenzyl)thio)-1H-imidazol-5-yl)methyl)methanamine] | 84
Cc1nn(C)cc1CN(C)C(=O)c1cnc(SCc2c(F)cccc2Cl)n1-c1ccc(F)cc1 [Compound 532, 2-((2-Chloro-6-fluorobenzyl)thio)-N-((1,3-dimethyl-1H-pyrazol-4-yl)methyl)-1-(4-fluorophenyl)-N-methyl-1H-imidazole-5-carboxamide] | 100
CN(Cc1ccncc1)C(=O)c1cnc(SCc2c(F)cccc2Cl)n1-c1ccc(F)cc1 [Compound 533, 2-((2-Chloro-6-fluorobenzyl)thio)-1-(4-fluorophenyl)-N-methyl-N-(pyridin-4-ylmethyl)-1H-imidazole-5-carboxamide] | 100
CN(Cc1ccncc1)C(=O)c1cnc(CCc2ccccc2F)n1-c1ccc(F)cc1 [Compound 538, 2-(2-Fluorophenethyl)-1-(4-fluorophenyl)-N-methyl-N-(pyridin-4-ylmethyl)-1H-imidazole-5-carboxamide] | 90
O=C(c1cnc(SCc2c(F)cccc2Cl)n1-c1ccc(F)cc1)N1CCCC1c1ccncc1 (centres unmarked) [Compound 539, (2-((2-Chloro-6-fluorobenzyl)thio)-1-(4-fluorophenyl)-1H-imidazol-5-yl)(2-(pyridin-4-yl)pyrrolidin-1-yl)methanone] | 95
Cc1nn(C)cc1CN(C)C(=O)c1cnc(SCc2c(F)cc(C(=O)OC(C)(C)C)cc2F)n1-c1ccc(F)cc1 [Compound 542, tert-butyl 4-(((5-(((1,3-Dimethyl-1H-pyrazol-4-yl)methyl)(methyl)carbamoyl)-1-(4-fluorophenyl)-1H-imidazol-2-yl)thio)methyl)-3,5-difluorobenzoate] | 100
Cc1nn(C)cc1CN(C)C(=O)c1cnc(SCc2ccccc2Cl)n1-c1ccc(F)cc1 [Compound 549, 2-((2-Chlorobenzyl)thio)-N-((1,3-dimethyl-1H-pyrazol-4-yl)methyl)-1-(4-fluorophenyl)-N-methyl-1H-imidazole-5-carboxamide] | 98
Cc1cc(CN(C)C(=O)c2cnc(SCc3ccccc3Cl)n2-c2ccc(F)cc2)ccn1 [Compound 550, 2-((2-Chlorobenzyl)thio)-1-(4-fluorophenyl)-N-methyl-N-((2-methylpyridin-4-yl)methyl)-1H-imidazole-5-carboxamide] | 98
Cc1nn(C)cc1CN(C)C(=O)c1cnc(SCc2ncccc2Cl)n1-c1ccc(F)cc1 [Compound 551] | 99
Cc1nc(CSc2ncc(C(=O)N(C)Cc3cn(C)nc3C)n2-c2ccc(F)cc2)no1 [Compound 552, N-((1,3-Dimethyl-1H-pyrazol-4-yl)methyl)-1-(4-fluorophenyl)-N-methyl-2-(((5-methyl-1,2,4-oxadiazol-3-yl)methyl)thio)-1H-imidazole-5-carboxamide] | 99
Cc1nn(C)cc1CN(C)C(=O)c1cnc(SCc2c(F)cccc2Cl)n1-c1ccc(Cl)cc1 [Compound 553, 2-((2-Chloro-6-fluorobenzyl)thio)-1-(4-chlorophenyl)-N-((1,3-dimethyl-1H-pyrazol-4-yl)methyl)-N-methyl-1H-imidazole-5-carboxamide] | 100
Cc1nn(C)cc1CN(C)C(=O)c1cnc(SCc2c(F)cccc2Cl)n1-c1ccccc1 [Compound 554, 2-((2-Chloro-6-fluorobenzyl)thio)-N-((1,3-dimethyl-1H-pyrazol-4-yl)methyl)-N-methyl-1-phenyl-1H-imidazole-5-carboxamide] | 99
CN(Cc1ccncc1)C(=O)c1cnc(SCc2c(F)cccc2Cl)n1-c1ccccc1 [Compound 555, 2-((2-Chloro-6-fluorobenzyl)thio)-N-methyl-1-phenyl-N-(pyridin-4-ylmethyl)-1H-imidazole-5-carboxamide] | 100
CN(Cc1ccncc1)C(=O)c1cnc(SCc2c(F)cccc2Cl)n1-c1ccc(Cl)cc1 [Compound 556, 2-((2-Chloro-6-fluorobenzyl)thio)-1-(4-chlorophenyl)-N-methyl-N-(pyridin-4-ylmethyl)-1H-imidazole-5-carboxamide] | 99
CN(Cc1ccncc1)C(=O)c1cnc(SCc2c(Cl)cccc2Cl)n1-c1ccc(F)cc1 [Compound 561, 2-((2,6-Dichlorobenzyl)thio)-1-(4-fluorophenyl)-N-methyl-N-(pyridin-4-ylmethyl)-1H-imidazole-5-carboxamide] | 95

More lines, now with the values ahead:

activation at 1.1 µM [%] | Compound
82 | Cc1ccccc1CSc1ncc(C(=O)N(C)Cc2ccncc2)n1-c1ccc(F)cc1 [Compound 562, 1-(4-Fluorophenyl)-N-methyl-2-((2-methylbenzyl)thio)-N-(pyridin-4-ylmethyl)-1H-imidazole-5-carboxamide]
98 | Cc1ccc(-n2c(C(=O)N(C)Cc3ccncc3)cnc2SCc2c(F)cccc2Cl)cc1 [Compound 563, 2-((2-Chloro-6-fluorobenzyl)thio)-N-methyl-N-(pyridin-4-ylmethyl)-1-(p-tolyl)-1H-imidazole-5-carboxamide]
99 | CN(Cc1ccncc1)C(=O)c1cnc(SCc2c(F)cccc2Cl)n1-c1cccc(F)c1 [Compound 564, 2-((2-Chloro-6-fluorobenzyl)thio)-1-(3-fluorophenyl)-N-methyl-N-(pyridin-4-ylmethyl)-1H-imidazole-5-carboxamide]
99 | CN(Cc1ccncc1)C(=O)c1cnc(SCc2c(F)cccc2Cl)n1C1CCCCC1 [Compound 565, 2-((2-Chloro-6-fluorobenzyl)thio)-1-cyclohexyl-N-methyl-N-(pyridin-4-ylmethyl)-1H-imidazole-5-carboxamide]
96 | Cc1nn(C)cc1CN(C)C(=O)c1cnc(CSc2c(Cl)cccc2Cl)n1-c1ccc(F)cc1 [Compound 567, 2-(((2,6-Dichlorophenyl)thio)methyl)-N-((1,3-dimethyl-1H-pyrazol-4-yl)methyl)-1-(4-fluorophenyl)-N-methyl-1H-imidazole-5-carboxamide]
83 | Cc1nn(C)cc1CN(C)C(=O)c1cnc(COc2c(F)ccc(F)c2F)n1-c1ccc(F)cc1 [Compound 568, N-((1,3-Dimethyl-1H-pyrazol-4-yl)methyl)-1-(4-fluorophenyl)-N-methyl-2-((2,3,6-trifluorophenoxy)methyl)-1H-imidazole-5-carboxamide]
98 | Cc1nn(C)cc1CN(C)C(=O)c1cnc(CSc2c(F)c(F)cc(F)c2F)n1-c1ccc(F)cc1 [Compound 569, N-((1,3-Dimethyl-1H-pyrazol-4-yl)methyl)-1-(4-fluorophenyl)-N-methyl-2-(((2,3,5,6-tetrafluorophenyl)thio)methyl)-1H-imidazole-5-carboxamide]
88 | Cc1nn(C)cc1CN(C)C(=O)c1cnc(CSCc2c(F)ccc(F)c2F)n1-c1ccc(F)cc1 [Compound 572, N-((1,3-Dimethyl-1H-pyrazol-4-yl)methyl)-1-(4-fluorophenyl)-N-methyl-2-(((2,3,6-trifluorobenzyl)thio)methyl)-1H-imidazole-5-carboxamide]
99 | CN(Cc1ccnc(Cl)c1)C(=O)c1cnc(SCc2c(F)ccc(F)c2F)n1-c1ccc(F)cc1 [Compound 578, N-((2-Chloropyridin-4-yl)methyl)-1-(4-fluorophenyl)-N-methyl-2-((2,3,6-trifluorobenzyl)thio)-1H-imidazole-5-carboxamide]
85 | Cc1nn(C)cc1CN(C)C(=O)c1cnc(SCc2ccncc2)n1-c1ccc(F)cc1 [Compound 579, N-((1,3-Dimethyl-1H-pyrazol-4-yl)methyl)-1-(4-fluorophenyl)-N-methyl-2-((pyridine-4-ylmethyl)thio)-1H-imidazole-5-carboxamide]
96 | Cc1cc(CN(C)C(=O)c2cnc(SCCc3ccc(F)c(Cl)c3)n2-c2ccc(F)cc2)ccn1 [Compound 583]
97 | Cc1cc(CN(C)C(=O)c2c(C)nc(SCc3c(F)ccc(F)c3F)n2-c2ccc(F)cc2)ccn1 [Compound 585, 1-(4-Fluorophenyl)-N-4-dimethyl-N-((2-methylpyridin-4-yl)methyl)-2-((2,3,6-trifluorobenzyl)thio)-1H-imidazole-5-carboxamide]
86 | Cc1cc(CN(C)C(=O)c2cnc(S(=O)(=O)CCc3ccc(F)c(Cl)c3)n2-c2ccc(F)cc2)ccn1 [Compound 586, 2-((3-Chloro-4-fluorophenethyl)sulfonyl)-1-(4-fluorophenyl)-N-methyl-N-((2-methylpyridin-4-yl)methyl)-1H-imidazole-5-carboxamide]
86 | CN(Cc1ccnc(C(F)(F)F)c1)C(=O)c1cnc(SCc2c(F)ccc(F)c2F)n1-c1ccc(F)cc1 [Compound 587]
